Blank lines part the entries; values can stand above or below the compound they belong to.
How the values were obtained:
[1] = cited from earlier work
[2] = biological target: PBR (Homo sapiens, UniProt P30536); conditions: in vivo; cited from earlier work
[3] = compared with 11C-PK11195; cited from earlier work
[4] = In vivo biodistribution method; parameters: species or system Wistar rats; conditions: for OB:Str 30 min: ratio olfactory bulb to striatum, 30 min after injection
Protocol: Imaging agents of the invention were tested in an in vivo biodistribution model.
Adult male Wistar rats (200-300 g) were injected with 1-3 MBq of test compound via the lateral tail vein. At 2, 10, 30 or 60 min (n=3) after injection, rats were euthanised and tissues or fluids were sampled for radioactive measurement on a gamma counter.

[5] = biological target: T1, Wistar rat heart PBR (Rattus norvegicus, UniProt P16257); assay: In vitro potency assay: competition against 0.3 nM [3H]PK-11195 for binding to PBR; conditions: non-radioactive analogues tested; vs 0.3 nM [3H]PK-11195; 50 mM Tris-HCl pH 7.4, 10 mM MgCl2, 15 minutes at 25° C.
T1 construct: from tissue; host or cells: Wistar rat heart
Protocol: Non-radioactive analogues of in vivo imaging agents of the invention were tested.
The reaction was carried out in 50 mM Tris-HCl, pH 7.4 10 mM MgCl2 for 15 minutes at 25° C.

Sequence of PBR (P30536 whole entry, species assumed): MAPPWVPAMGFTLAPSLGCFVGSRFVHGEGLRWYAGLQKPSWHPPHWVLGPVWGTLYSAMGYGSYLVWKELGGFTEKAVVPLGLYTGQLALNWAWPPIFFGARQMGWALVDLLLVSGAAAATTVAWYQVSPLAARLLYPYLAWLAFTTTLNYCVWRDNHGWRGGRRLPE

Brain 2 min (% ID/g) ([4]; brain, 2 min after injection via lateral tail vein, 1-3 MBq, adult male Wistar rats): 0.56 % ID/g | OB 30 min (% ID/g) ([4]; olfactory bulb, 30 min after injection via lateral tail vein, adult male Wistar rats): 0.41 % ID/g | OB:Str 30 min [4]: 3.72
SMILES: O=C(C1CCCc2c1c1ccccc1n2CC[18F])N1CCCCCC1 (stereo not shown) [compound 9]

Ki [5]: 2.12 nM | OB:Str 30 min [4]: 3.50
SMILES: CCN(CC)C(=O)C1CC(C)Cc2c1c1ccccc1n2CC[18F] (stereo not shown) [compound 11]

Second part, the compound before the results:

SMILES: CC[C@H](C)N([11CH3])C(=O)c1cc2ccccc2c(-c2ccccc2Cl)n1 [[^11C]PK11195]
plasma protein binding [1]: high and variable | brain uptake [2]: relatively low and variable | levels of non-specific binding [2]: relatively high

SMILES: CCN(CC)C(=O)Cc1c(-c2ccc(OCC[18F])cc2)nn2c(C)cc(C)nc12 [^18F-DPA-714]
bioavailability [3]: increased

SMILES: CN(Cc1ccccc1)C(=O)C1CCCc2c1c1ccccc1n2CC[18F] (stereo not shown) [compound 7]
OB:Str 30 min [4]: 3.40

From patent US9314541B2, “In vivo imaging method for cancer” (GE Healthcare Limited, priority 2010, dated 2016)
